Assay results published in patent publication US7960349B2 (Bristol-Myers Squibb Company, priority 2006, dated 2011).
*1 amine or outer side, *2 acyl side, *3 side chain or, on linkers, in order; H or OH if unused. Where a SMILES comes first, the peptide text is derived from it. Primed or numbered codes have the meaning given here. [ ]: non-standard residue; d: D form. The star is where a group is joined. ξ: configuration not given here. X1 = 4‑(2′-methylphenyl)‑3‑pyridylalanine, Cc1ccccc1-c1ccncc1C[C@H](N[*:1])C(=O)[*:2]; Ala(6-(2-MePh)pyridin-3-yl) = Cc1ccccc1-c1ccc(C[C@H](N)C(=O)O)cn1; Phe(4-(2-Et-4-HO-Ph)) = CCc1cc(O)ccc1-c1ccc(C[C@H](N)C(=O)O)cc1; Bip(2'-Et-4'-OMe) = CCc1cc(OC)ccc1-c1ccc(C[C@H](N)C(=O)O)cc1; X2 = Cc1ccccc1-c1ncc(C[C@H](N[*:1])C(=O)[*:2])cn1; αMePhe(2,6-F2) = C[C@](N)(Cc1c(F)cccc1F)C(=O)O; αMePhe(2-F) = C[C@](N)(Cc1ccccc1F)C(=O)O; ξαMePhe(2-F) = CC(N)(Cc1ccccc1F)C(=O)O; αMeP = C[C@@]1(C(=O)O)CCCN1; dNMeA = CN[C@H](C)C(=O)O; ξαMeP = CC1(C(=O)O)CCCN1; Aib = CC(C)(N)C(=O)O; Moc = COC(=O)*

What was measured:
[1] = Dog pharmacokinetic study; format: in vivo; conditions: sc 67 μg/kg; vehicle propylene glycol/pH 7.4 phosphate buffer (1:1)
Experimental: The pharmacokinetic parameters of the Compounds of SEQ ID NO: 9, 118, 151 and 158 were determined in male beagle dogs (n=3-4, 14±1 kg). Following an overnight fast, each animal received the Compounds of SEQ ID NO: 9, 118, 151 and 158 either as an intravenous bolus via femoral vein (67 μg/kg) or by subcutaneous injection given at near the shoulder blades (67 μg/kg). Each animal received both intravenous and subcutaneous doses with a one-week washout between doses following a crossover design. The dosing vehicle for both routes of administration was propylene glycol:pH 7.4 phosphate buffer (50:50) or 0.2 M Tris (pH 8.0). Serial blood samples were collected in EDTA-containing microcentrifuge tubes at predose, 0.083, 0.25, 0.5, 0.75, 1, 2, 4, 6, 8, 24, and 30 hours post-dose after intravenous administration; at predose, 0.25, 0.5, 0.75, 1, 2, 4, 6, 8, 24, and 30 hours post-dose after subcutaneous administration. Approximately 0.3 mL of blood was collected at each time point. Blood samples were immediately centrifuged at 4° C. The obtained plasma was frozen with dry ice and stored at −20° C. Plasma drug levels were determined using the LC-MS/MS assay described below.
Plasma samples from the in vivo dog study were prepared for analysis by precipitating plasma proteins with two volumes of AcCN containing an internal standard. The samples were vortex mixed and the precipitated proteins were removed by centrifugation. The resulting supernatants were transferred to a 96-well plate and 10 μL were injected for TFC-LC/MS/MS analysis.
The TFC-HPLC system (Cohesive TX-1 Flux, Aria 2300 System) consisted of a loading pump, an eluting pump, and a CTC PAL autosampler (Cohesive Technologies, Franklin, Mass.). The columns used were Phenomenex Synergi Fusion-RP (C18, 2.0×50 mm, 4μ) (Phenomenex, Torrance, Calif.) as the analytical column and Turbo-Flow (TF) HTLC Cyclone column (0.5×50 mm) (Cohesive Technologies, Franklin, Mass.) as the extraction column for on-line sample processing. The mobile phase A consisted of 10 mM ammonium formate and 0.1% formic acid in water and mobile phase B consisted of 0.1% formic acid in AcCN. Turbo-Flow Chromatography was used to obtain a cleaner sample. A rapid gradient elution was used for analyte separation. The samples were injected onto the Turbo-Flow HTLC Cyclone column and analytes were separated from biological fluid components with using 100% H2O at 1.5 mL/min. The TF column was back flushed and analytes were back eluted from the TF to HPLC analytical column using a ramp to 60% B over 2 min and held there for 30 seconds at 0.3 mL/min to separate and to elute the analytes from the HPLC column into the mass spectrometer. Both columns were washed for an additional minute and then both columns were re-equilibrated at initial conditions.
The HPLC was interfaced to a Sciex API 4000 mass spectrometer (Applied Biosystems, Foster City, Calif.) and was equipped with a TurboIonspray ionization source. Ultra high purity nitrogen was used as the nebulizing and turbo-gas. The temperature of turbo-gas was set at 300° C. and the interface heater was set at 60° C. Selected Reaction Monitoring (SRM) was used for data acquisition. Multiple charged ion species, i.e. (M+2H)^2+ for Compound of SEQ ID NO: 158 were selected in Q1 and were collisionally dissociated with high purity nitrogen at a pressure of 3.5×10^−3 torr in Q2 to form specific product ions which were subsequently monitored in Q3. The ion transitions and voltages are summarized below (Table 4).
The standard curve concentrations, ranging from 1 to 1000 nM, were analyzed in duplicate. The curves were fitted with a linear regression weighted by reciprocal concentration […]. Quality control (QC) samples, prepared in blank matrix at the same concentrations as the standards were also analyzed in each analytical set. […]

ob/ob mice = test: Intraperitoneal glucose tolerance test (ipGTT) in ob/ob mice after sc injection; format: in vivo, mouse; conditions: 10 nmol/kg sc; relative to vehicle-treated group
Experimental: Peptides were dissolved in an appropriate vehicle at a concentration in nmol/ml equivalent to the dose that was to be administered in nmol/kg so that each mouse would receive the same volume/weight of dosing solution. Male C57BL/6-ob/ob mice (10 weeks old) were randomized into groups of 6 mice per group based on fed plasma glucose and body weight. After an overnight fast, mice were weighed and placed in the experimental lab. After 30 min in the environment, the mice were bled via tail tip at −30 min and immediately injected subcutaneously (sc) with vehicle or the peptide dissolved in vehicle (0.1 ml solution/100 g body weight). At time 0 the mice were bled and then injected intraperitoneally with 50% glucose (2 g/kg) to initiate the intraperitoneal glucose tolerance test (ipGTT). The mice were bled 30, 60, 120 and 180 min after the glucose injection. Blood samples were drawn into potassium EDTA, placed on ice during the study and subsequently centrifuged for 10 min at 3000 rpm at 4° C. Plasma samples were diluted 11-fold for glucose analysis in the Cobas System. Another 5 μl plasma sample was diluted 5-fold with 20 μl of Sample Diluent (Insulin ELISA assay kit, Crystal Chem. Inc.) and stored at −20° C. for subsequent analysis using the Ultra Sensitive Mouse Insulin ELISA kit (Crystal Chem Inc.).

Human GLP-1 Receptor = molecular target: T1, Human GLP-1 Receptor (Homo sapiens, UniProt P43220); test: Cyclic AMP determination in CHO cells expressing human GLP-1 receptor; format: cell-based; conditions: human GLP-1 receptor
T1 construct: Full-length human glucagon-like peptide 1 receptor was stably expressed in CHO-K1 cells; expressed in transfected cells; host or cells: CHO-K1 (clone CHO-GLP1R-19)
Experimental: CHO-GLP-1R-19 cells (20,000 in 100 μl of media) were plated into each well of a 96-well tissue culture microtiter plate and incubated overnight in a 5% CO2 atmosphere at 37° C. On the day of the assay, cells were washed once with 100 μl of phosphate-buffered saline (PBS). A Biomek 2000 was used to serially dilute all peptides prior to beginning the assay. Serial dilutions were carried out in 100% DMSO.
50 μl of each cAMP standard was added by hand and 70 μl of mix reagent (Amersham cAMP SPA kit) was added using the multidrop. […] This standard curve was used to convert CPM to pmol of cAMP.
Cell plates and peptide plates were loaded onto the Platemate. The media was aspirated from the wells and discarded. 100 uL per well of the peptide/buffer mixture were then added from the peptide plates to initiate the assay. After 30 min. of incubation the peptide/buffer was removed and 50 uL of the lysis reagent 1 solution was added per well. The plate was kept for one hour at RT or overnight if refrigerated and sealed.
Dose dependence for Compounds was determined at half-log concentrations in duplicate. […] A standard curve was determined using known amounts of cyclic AMP. […] The data were analyzed by nonlinear regression curve fitting (4 parameter sigmoidal dose-response curve) to determine the EC50 of the compounds.

[2] = molecular target: Full-length human glucagon-like peptide 1 receptor (human, UniProt P43220 24-463); test: cell-based or functional assay

T1 sequence (P43220 24-463): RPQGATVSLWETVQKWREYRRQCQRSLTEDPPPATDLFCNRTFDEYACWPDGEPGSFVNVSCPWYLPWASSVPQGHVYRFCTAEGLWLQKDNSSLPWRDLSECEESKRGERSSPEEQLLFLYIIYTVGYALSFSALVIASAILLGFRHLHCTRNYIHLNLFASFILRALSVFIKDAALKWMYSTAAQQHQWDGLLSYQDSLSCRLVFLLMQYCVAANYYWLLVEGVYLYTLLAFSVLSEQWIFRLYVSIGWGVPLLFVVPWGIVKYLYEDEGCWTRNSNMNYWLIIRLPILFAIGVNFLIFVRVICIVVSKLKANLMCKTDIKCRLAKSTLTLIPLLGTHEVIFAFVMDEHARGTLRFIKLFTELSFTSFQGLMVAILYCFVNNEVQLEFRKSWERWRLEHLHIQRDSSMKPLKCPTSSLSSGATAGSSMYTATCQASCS

## CCc1cc(OC)ccc1-c1ccc(C[C@H](NC(=O)[C@H](CC(=O)O)NC(=O)[C@H](CO)NC(=O)[C@@H](NC(=O)[C@](C)(Cc2ccccc2F)NC(=O)[C@@H](NC(=O)CNC(=O)[C@H](CCC(=O)O)NC(=O)[C@@H](C)N(C)C(=O)[C@@H](N)Cc2c[nH]cn2)[C@@H](C)O)[C@@H](C)O)C(=O)N[C@@H](Cc2ccc(-c3ccccc3C)nc2)C(N)=O)cc1 [SEQ ID NO: 119] (H-H[dNMeA]EGT[αMePhe(2-F)]TSD[Bip(2'-Et-4'-OMe)][Ala(6-(2-MePh)pyridin-3-yl)]-NH2)
[1]
  Exposure in dogs (sc@67 μg/kg): 1.257 µM·h

## CCc1cc(OC)ccc1-c1ccc(C[C@H](NC(=O)[C@H](CC(=O)O)NC(=O)[C@H](Cc2c[nH]cn2)NC(=O)[C@@H](NC(=O)[C@](C)(Cc2ccccc2F)NC(=O)[C@@H](NC(=O)CNC(=O)[C@H](CCC(=O)O)NC(=O)[C@]2(C)CCCN2C(=O)[C@@H](N)Cc2c[nH]cn2)[C@@H](C)O)[C@@H](C)O)C(=O)N[C@@H](Cc2ccc(-c3ccccc3C)nc2)C(N)=O)cc1 [SEQ ID NO: 120] (H-H[αMeP]EGT[αMePhe(2-F)]THD[Bip(2'-Et-4'-OMe)][Ala(6-(2-MePh)pyridin-3-yl)]-NH2)
[1]
  Exposure in dogs (sc@67 μg/kg): 1.116 µM·h

## CCc1cc(OC)ccc1-c1ccc(C[C@H](NC(=O)[C@H](CC(=O)O)NC(=O)[C@H](CO)NC(=O)[C@@H](NC(=O)[C@](C)(Cc2ccccc2F)NC(=O)[C@@H](NC(=O)CNC(=O)[C@H](CCC(=O)O)NC(=O)C(C)(C)NC(=O)[C@@H](N)Cc2c[nH]cn2)[C@@H](C)O)[C@@H](C)O)C(=O)N[C@@H](Cc2cnc(-c3ccccc3C)nc2)C(N)=O)cc1 [SEQ ID NO: 130] (H-H[Aib]EGT[αMePhe(2-F)]TSD[Bip(2'-Et-4'-OMe)][X2]-NH2)
[1]
  Exposure in dogs (sc@67 μg/kg): 0.541 µM·h

## CCc1cc(OC)ccc1-c1ccc(C[C@H](NC(=O)[C@H](CC(=O)O)NC(=O)[C@H](CO)NC(=O)[C@@H](NC(=O)C(C)(Cc2ccccc2F)NC(=O)[C@@H](NC(=O)CNC(=O)[C@H](CCC(=O)O)NC(=O)C2(C)CCCN2C(=O)[C@H](Cc2c[nH]cn2)NC(=O)OC)[C@@H](C)O)[C@@H](C)O)C(=O)N[C@@H](Cc2ccc(-c3ccccc3C)nc2)C(N)=O)cc1 (stereo partly drawn) [SEQ ID NO: 139] (Moc-H[ξαMeP]EGT[ξαMePhe(2-F)]TSD[Bip(2'-Et-4'-OMe)][Ala(6-(2-MePh)pyridin-3-yl)]-NH2)
ob/ob mice
  Potency in ob/ob mice: % AUC Reduction in Plasma Glucose in an IP Glucose Tolerance Test after SC Injection of Compound: −63% (p < 0.01)
[1]
  Exposure in dogs (sc@67 μg/kg): 1.603 µM·h

## CCc1cc(OC)ccc1-c1ccc(C[C@H](NC(=O)[C@H](CC(=O)O)NC(=O)[C@H](CO)NC(=O)[C@@H](NC(=O)[C@](C)(Cc2c(F)cccc2F)NC(=O)[C@@H](NC(=O)CNC(=O)[C@H](CCC(=O)O)NC(=O)[C@]2(C)CCCN2C(=O)[C@H](Cc2c[nH]cn2)NC(=O)OC)[C@@H](C)O)[C@@H](C)O)C(=O)N[C@@H](Cc2ccc(-c3ccccc3C)nc2)C(N)=O)cc1 [SEQ ID NO: 140] (Moc-H[αMeP]EGT[αMePhe(2,6-F2)]TSD[Bip(2'-Et-4'-OMe)][Ala(6-(2-MePh)pyridin-3-yl)]-NH2)
[1]
  Exposure in dogs (sc@67 μg/kg): 0.283 µM·h

## CCc1cc(OC)ccc1-c1ccc(C[C@H](NC(=O)[C@H](CC(=O)O)NC(=O)[C@H](CO)NC(=O)[C@@H](NC(=O)[C@](C)(Cc2ccccc2F)NC(=O)[C@@H](NC(=O)CNC(=O)[C@H](CCC(=O)O)NC(=O)[C@@H](C)NC(=O)[C@@H](N)Cc2c[nH]cn2)[C@@H](C)O)[C@@H](C)O)C(=O)N[C@@H](Cc2ccc(-c3ccccc3C)nc2)C(N)=O)cc1 [SEQ ID NO: 149] (H-H[dA]EGT[αMePhe(2-F)]TSD[Bip(2'-Et-4'-OMe)][Ala(6-(2-MePh)pyridin-3-yl)]-NH2)
[1]
  Exposure in dogs (sc@67 μg/kg): 0.94 µM·h

## CCc1cc(OC)ccc1-c1ccc(C[C@H](NC(=O)[C@H](CC(=O)O)NC(=O)[C@H](CO)NC(=O)[C@@H](NC(=O)[C@](C)(Cc2ccccc2F)NC(=O)[C@@H](NC(=O)CNC(=O)[C@H](Cc2c[nH]cn2)NC(=O)C(C)(C)NC(=O)[C@@H](N)Cc2c[nH]cn2)[C@@H](C)O)[C@@H](C)O)C(=O)N[C@@H](Cc2ccc(-c3ccccc3C)nc2)C(N)=O)cc1 [SEQ ID NO: 150] (H-H[Aib]HGT[αMePhe(2-F)]TSD[Bip(2'-Et-4'-OMe)][Ala(6-(2-MePh)pyridin-3-yl)]-NH2)
[1]
  Exposure in dogs (sc@67 μg/kg): 0.979 µM·h

## CCc1cc(O)ccc1-c1ccc(C[C@H](NC(=O)[C@H](CC(=O)O)NC(=O)[C@H](Cc2c[nH]cn2)NC(=O)[C@@H](NC(=O)C(C)(Cc2ccccc2F)NC(=O)[C@@H](NC(=O)CNC(=O)[C@H](CCC(=O)O)NC(=O)C2(C)CCCN2C(=O)[C@H](Cc2c[nH]cn2)NC(=O)OC)[C@@H](C)O)[C@@H](C)O)C(=O)N[C@@H](Cc2ccc(-c3ccccc3C)nc2)C(N)=O)cc1 (stereo partly drawn) [SEQ ID NO: 157] (Moc-H[ξαMeP]EGT[ξαMePhe(2-F)]THD[Phe(4-(2-Et-4-HO-Ph))][Ala(6-(2-MePh)pyridin-3-yl)]-NH2)
Human GLP-1 Receptor; CHO, percent of maximal GLP-1 stimulated activity
  Emax: 99.4%
Human GLP-1 Receptor
  Mean Hill: 1.9

## Moc-H[αMeP]EGT[αMePhe(2-F)]THD[Phe(4-(2-Et-4-HO-Ph))][X1]-NH2 [Compound of SEQ ID NO: 157]
[2]
  Mean EC50 (nM), stimulation of cAMP synthesis in CHO cells: 0.026 nM
  Mean Emax (%), stimulation of cAMP synthesis in CHO cells: 99.4%
